Measured values: patent publication US12161722B2, “Bifunctional heterocyclic compound having BTK degradation function via ubiquitin proteasome pathway, and use thereof” (KOREA RESEARCH INSTITUTE OF CHEMICAL TECHNOLOGY, priority 2021, dated 2024)

Biological target: T1, WT BTK protein (Homo sapiens, UniProt Q06187)
T1 construct: measured for intracellular BTK protein levels by Western blotting; endogenous in cells; host or cells: TMD-8 or RAMOS cells
Assay: BTK protein degradation assay (Western blotting), WT BTK
Assay type: cell-based
Settings: concentration range accounting for 50% degradation of WT BTK protein, TMD-8 or RAMOS cells, 24 hours
Experimental: TMD-8, RAMOS, or 293T BTK MUT (C481S) cells were treated with the synthesized compounds and measured for intracellular BTK protein levels by Western blotting. The protocol of the experiment using TMD-8 cells is as follows.
TMD-8 cells were resuspended in an RPMI1640 medium (Hyclone, SH30027.01, 10% FBS (Hyclone, SV30207.02), 1% penicillin-streptomycin (Welgene, LS 202-02) and the cell suspension was seeded at a density of 1×10^6 cells/mL in an amount of 1 mL per well into 12-well plates.
The 12-well plates were treated as follows. A 10 mM stock was 1/10 diluted in series with DMSO ([…]) to form final concentrations of 10, 1, 0.1, 0.01, 0.001, and 0.0001 mM. The compounds with such concentrations were applied to cells, followed by harvesting the cells 24 hours later. For a negative control, a 1/10 dilution of DMSO in the medium (3 mL DMSO+27 mL medium) was used.
The 1-mL cell culture in each well was passed many times through a pipette and then transferred into a 1.5-mL microtube before centrifugation (500 g, 5 min, 4° C.). The supernatant was discarded and the cell pellet was washed with PBS. After centrifugation (500 g, 5 min, 4° C.) again, the supernatant was discarded and the cell pellet was taken.
A lysis buffer was prepared as follows. RIPA buffer (Biosesang, RC2038-050-00)+0.5 mM PMSF (SIGMA, P7626)+1×Protease/Phosphatase Inhibitor (Cell signaling, 5872S) was added in an amount […] per well and left for 30 minutes on ice (vortexing at 0 and 30 minutes) before sonication (5 cycles of pulse for 10 seconds and rest for 30 seconds, 70% amplification). The supernatant obtained by centrifugation (15000 g, 15 min, 4° C.) was transferred into a new microtube. Cells in each well of 96-well plates were 1/2 diluted with the RIPA buffer and incubated at 37° C. for 30 minutes with […] of a 50:1 mixture of BCA reagents A and B in BCA Protein Assay Kit (iNtRON, 21071). After being cooled for 10 minutes, the 96-well plates were measured for absorbance at 562 nm on the BioTek, SYNERGY H1 microplate reader. Samples were prepared by protein quantification based on the absorbance measurements and then boiled at 70° C. for 10 minutes. The sample buffer used in the case was prepared by mixing a NuPAGE or a Bolt 4× sample buffer (Invitrogen) and its 10× sample reducing agent depending on the gel to be used, and protein dilution was made in a RIPI buffer.
The samples were loaded in the same amount into a NuPAGE or Bolt Bis-tris 4-12% gradient gel and allowed to run therein (200 V, 35 minutes). The separated proteins were transferred onto a […] NC membrane, using Trans-blot Turbo (BIO-RAD) (1.3 A constant, 25V limit, 15 minutes). The membrane was blocked at room temperature for 1 hour with skim milk or Intercept Blocking Buffer (LI-COR, 927-60001):0.1% TBST=1:1. The membrane was incubated with Anti BTK Rabbit (1:1,000 in 5% skim milk/0.2% TBST, size: 77 kDa, Cell signaling Technology) at 4° C. overnight O/N or at room temperature for 2 hours and with Anti GAPDH Rabbit (1:10,000 in 5% BSA/0.2% TBST, size: 36 kDa, GENETEX) and Anti β-actin mouse (1:10,000 in 5% BSA/0.2% TBST, RT, size: 43 kDa, GENETEX) at room temperature for 1 or 3 hours. Then, the membrane was washed three times with 0.5% TBST for 5 minutes each time before incubation with the second antibody Anti-Rabbit IgG (1:5,000 in 5% Skim milk/TBST, CST), IRDye® 800CW Goat anti-Rabbit IgG Secondary Antibody (1:10,000 in 5% skim/TBST, RT 45 min), or IRDye® 680RD Goat anti-Mouse IgG Secondary Antibody (1:10,000 in 5% skim/TBST, RT 45 min) for 45 minutes at room temperature in a rocker. The membrane was washed five times with 0.5% TBST for 5 minutes in each time, followed by detection with LI-COR, Odyssey. In this regard, the detection proceeded, as it was, for house-keeping genes while using SuperSignal West Pico PLUS Chemiluminescent Substrate or SuperSignal West femto Maximum Sensitivity Substrate for BTK detection. […]

T1 sequence (Q06187 whole entry): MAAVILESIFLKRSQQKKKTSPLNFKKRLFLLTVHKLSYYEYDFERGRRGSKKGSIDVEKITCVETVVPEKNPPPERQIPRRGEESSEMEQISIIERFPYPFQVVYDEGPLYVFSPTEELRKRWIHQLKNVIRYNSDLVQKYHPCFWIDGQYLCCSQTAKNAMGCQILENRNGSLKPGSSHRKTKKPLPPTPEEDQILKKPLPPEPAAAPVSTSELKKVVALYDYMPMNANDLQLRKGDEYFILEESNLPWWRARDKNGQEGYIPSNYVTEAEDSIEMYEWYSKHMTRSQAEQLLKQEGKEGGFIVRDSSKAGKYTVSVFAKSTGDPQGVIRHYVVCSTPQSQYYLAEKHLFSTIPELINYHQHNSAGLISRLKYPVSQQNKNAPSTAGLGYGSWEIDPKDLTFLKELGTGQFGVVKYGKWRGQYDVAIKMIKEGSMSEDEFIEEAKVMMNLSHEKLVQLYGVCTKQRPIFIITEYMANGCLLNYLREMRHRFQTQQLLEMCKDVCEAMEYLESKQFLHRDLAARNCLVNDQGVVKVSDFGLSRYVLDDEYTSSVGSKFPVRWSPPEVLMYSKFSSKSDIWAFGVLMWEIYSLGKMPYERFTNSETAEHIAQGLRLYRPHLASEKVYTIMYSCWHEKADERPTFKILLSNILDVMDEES

Row | DC50 | SMILES
1 | 10 to 1000 nM | Cc1cccc(C)c1Nc1nn(C)c2nc(Nc3ccc4c(c3)CN(CC3CCN(CC5CN(c6ccc7c(c6)C(=O)N(C6CCC(=O)NC6=O)C7=O)C5)CC3)CC4)ncc12 (centres unmarked) [Compound 50, 5-(3-((4-((7-((3-((2,6-Dimethylphenyl)amino)-1-methyl-1H-pyrazolo[3,4-d]pyrimidin-6-yl)amino)-3,4-dihydroisoquinolin-2 (1H)-yl)methyl)piperidin-1-yl)methyl)azetidin-1-yl)-2-(2,6-dioxopiperidin-3-yl)isoindoline-1,3-dione]
2 | 0.1 to 10 nM | Cc1cccc(C)c1Nc1nn(C)c2nc(Nc3ccc4c(c3)CN(CC3CN(C(=O)CNc5ccc6c(c5)C(=O)N(C5CCC(=O)NC5=O)C6=O)C3)CC4)ncc12 (centres unmarked) [Compound 51, 5-((2-(3-((7-((3-((2,6-Dimethylphenyl)amino)-1-methyl-1H-pyrazolo[3,4-d]pyrimidin-6-yl)amino)-3,4-dihydroisoquinolin-2 (1H)-yl)methyl)azetidin-1-yl)-2-oxoethyl)amino)-2-(2,6-dioxopiperidin-3-yl)isoindoline-1,3-dione]
3 | 0.1 to 10 nM | Cc1cccc(C)c1Nc1nn(C)c2nc(Nc3ccc4c(c3)CN(CC3CCN(C(=O)CNc5ccc6nnn(C7CCC(=O)NC7=O)c(=O)c6c5)CC3)CC4)ncc12 (centres unmarked) [Compound 52, 3-(6-((2-(4-((7-((3-((2,6-Dimethylphenyl)amino)-1-methyl-1H-pyrazolo[3,4-d]pyrimidin-6-yl)amino)-3,4-dihydroisoquinolin-2 (1H)-yl)methyl)piperidin-1-yl)-2-oxoethyl)amino)-4-oxobenzo[d][1,2,3]triazin-3 (4H)-yl)piperidin-2,6-one]
4 | 10 to 1000 nM | Cc1cccc(C)c1Nc1nn(C)c2nc(Nc3ccc4c(c3)CN(C(=O)C3CCN(c5ccc6c(c5)C(=O)N(C5CCC(=O)NC5=O)C6=O)C3)CC4)ncc12 (centres unmarked) [Compound 66]
5 | 10 to 1000 nM | Cc1cccc(C)c1Nc1nn(C)c2nc(Nc3ccc4c(c3)CN(C(=O)C3CCN(C(=O)C5CCN(c6ccc7c(c6)C(=O)N(C6CCC(=O)NC6=O)C7=O)CC5)C3)CC4)ncc12 (centres unmarked) [Compound 67, 5-(4-(3-(7-((3-((2,6-Dimethylphenyl)amino)-1-methyl-1H-pyrazolo[3,4-d]pyrimidin-6-yl)amino)-1,2,3,4-tetrahydroisoquinoline-2-carbonyl)pyrrolidine-1-carbonyl)piperidin-1-yl)-2-(2,6-dioxopiperidin-3-yl)isoindoline-1,3-dione]
6 | 10 to 1000 nM | Cc1cccc(C)c1Nc1nn(C)c2nc(Nc3ccc4c(c3)CN(C(=O)C3CCN(C(=O)CNc5ccc6c(=O)n(C7CCC(=O)NC7=O)nnc6c5)CC3)CC4)ncc12 (centres unmarked) [Compound 68, 3-(7-((2-(4-(7-((3-((2,6-Dimethylphenyl)amino)-1-methyl-1H-pyrazolo[3,4-d]pyrimidin-6-yl)amino)-1,2,3,4-tetrahydroisoquinoline-2-carbonyl)piperidin-1-yl)-2-oxoethyl)amino)-4-oxobenzo[d][1,2,3]triazin-3 (4H)-yl)piperidin-2,6-one]
7 | 10 to 1000 nM | Cc1cccc(C)c1Nc1nn(C)c2nc(Nc3ccc4c(c3)CN(C(=O)C3CCN(c5ccc6c(=O)n(C7CCC(=O)NC7=O)nnc6c5)CC3)CC4)ncc12 (centres unmarked) [Compound 69, 3-(7-(4-(7-((3-((2,6-Dimethylphenyl)amino)-1-methyl-1H-pyrazolo[3,4-d]pyrimidin-6-yl)amino)-1,2,3,4-tetrahydroisoquinoline-2-carbonyl)piperidin-1-yl)-4-oxobenzo[d][1,2,3]triazin-3 (4H)-yl)piperidin-2,6-one]
8 | 10 to 1000 nM | Cc1cccc(C)c1Nc1nn(C)c2nc(Nc3ccc4c(c3)CN(C(=O)CNc3ccc5c(c3)C(=O)N(C3CCC(=O)NC3=O)C5=O)CC4)ncc12 (centres unmarked) [Compound 72, 5-((2-(7-((3-((2,6-Dimethylphenyl)amino)-1-methyl-1H-pyrazolo[3,4-d]pyrimidin-6-yl)amino)-3,4-dihydroisoquinolin-2 (1H)-yl)-2-oxoethyl)amino)-2-(2,6-dioxopiperidin-3-yl)isoindoline-1,3-dione]
9 | 10 to 1000 nM | Cc1cccc(C)c1Nc1nn(C)c2nc(Nc3ccc4c(c3)CN(CC3CCN(c5ccc6c(c5)C(=O)N(C5CCC(=O)NC5=O)C6=O)CC3)C4)ncc12 (centres unmarked) [Compound 73, 5-(4-((5-((3-((2,6-Dimethylphenyl)amino)-1-methyl-1H-pyrazolo[3,4-d]pyrimidin-6-yl)amino)isoindolin-2-yl)methyl)piperidin-1-yl)-2-(2,6-dioxopiperidin-3-yl)isoindoline-1,3-dione]
10 | 10 to 1000 nM | Cc1cccc(C)c1Nc1nn(C)c2nc(Nc3ccc4c(c3)CN(CC3CCN(c5ccc6c(=O)n(C7CCC(=O)NC7=O)nnc6c5)CC3)C4)ncc12 (centres unmarked) [Compound 74, 3-(7-(4-((5-((3-((2,6-Dimethylphenyl)amino)-1-methyl-1H-pyrazolo[3,4-d]pyrimidin-6-yl)amino)isoindolin-2-yl)methyl)piperidin-1-yl)-4-oxobenzo[d][1,2,3]triazin-3 (4H)-yl)piperidin-2,6-one]
11 | 10 to 1000 nM | Cc1cccc(C)c1Nc1nn(C)c2nc(Nc3ccc4c(c3)C(C)N(CC3CCN(c5ccc6c(c5)C(=O)N(C5CCC(=O)NC5=O)C6=O)CC3)CC4)ncc12 (centres unmarked) [Compound 75, 5-(4-((7-((3-((2,6-Dimethylphenyl)amino)-1-methyl-1H-pyrazolo[3,4-d]pyrimidin-6-yl)amino)-1-methyl-3,4-dihydroisoquinolin-2 (1H)-yl)methyl)piperidin-1-yl)-2-(2,6-dioxopiperidin-3-yl)isoindoline-1,3-dione]
12 | 10 to 1000 nM | COCCOc1cc(C)c(Nc2nn(C)c3nc(Nc4ccc5c(c4)CN(CC4CCN(c6ccc7c(c6)C(=O)N(C6CCC(=O)NC6=O)C7=O)CC4)CC5)ncc23)c(C)c1 (centres unmarked) [Compound 76, 2-(2,6-Dioxopiperidin-3-yl)-5-(4-((7-((3-((4-(2-methoxyethoxy)-2,6-dimethylphenyl)amino)-1-methyl-1H-pyrazolo[3,4-d]pyrimidin-6-yl)amino)-3,4-dihydroisoquinolin-2 (1H)-yl)methyl)piperidin-1-yl)isoindoline-1,3-dione]
13 | 0.1 to 10 nM | Cc1cccc(C)c1Nc1nn(C)c2nc(Nc3ccc4c(c3)CN(CC3CCN(C(=O)CNc5ccc6c(c5)CN(C5CCC(=O)NC5=O)C6=O)CC3)CC4)ncc12 (centres unmarked) [Compound 80, 3-(5-((2-(4-((7-((3-((2,6-Dimethylphenyl)amino)-1-methyl-1H-pyrazolo[3,4-d]pyrimidin-6-yl)amino)-3,4-dihydroisoquinolin-2 (1H)-yl)methyl)piperidin-1-yl)-2-oxoethyl)amino)-1-oxoisoindolin-2-yl)piperidin-2,6-one]

Row | SMILES | DC50
14 | Cc1cccc(C)c1Nc1nn(C)c2nc(Nc3ccc4c(c3)CN(CC3CCN(C(=O)CCc5cccc6c5CN(C5CCC(=O)NC5=O)C6=O)CC3)CC4)ncc12 (centres unmarked) [Compound 64, 3-(4-(3-(4-((7-((3-((2,6-Dimethylphenyl)amino)-1-methyl-1H-pyrazolo[3,4-d]pyrimidin-6-yl)amino)-3,4-dihydroisoquinolin-2 (1H)-yl)methyl)piperidin-1-yl)-3-oxopropyl)-1-oxoisoindolin-2-yl)piperidin-2,6-one] | 0.1 to 10 nM
